In patent publication US8394630B2, “Producing a mammalian pluripotent cell population from mammalian blastomere-like stem cells (BLSCs)” (StemBios Technologies, Inc., priority 2009, dated 2013):

Test system: BLSCs
Assay: Culturing BLSCs in medium containing RA or TGF-β to produce SBR and SBT cells
Assay type: cell-based, human
Conditions: StemBios-003 medium, 0.1 to 20 μM RA or 1 to 40 nM TGF-β, over 2-6 weeks
Procedure: The method for activation, purification, and expansion of BLSCs has been described in WO/2007/100845. In this example, BLSCs were purified from blood of a human subject using two methods. The isolated cells were analyzed by flow cytometry.
The purified BLSCs were cultured in StemBios-001. To produce SBR and SBT cells, BLSCs were cultured in a StemBios-002 medium for 2 weeks. Then, the BLSCs were cultured in a StemBios-003 medium containing 0.1 to 20 μM of RA or 1 to 40 nM of TGF-β for over 2˜6 weeks. […] These cells were named SBR and SBT cells respectively.

## TGF-β
  change of morphology and sizes of cultured BLSCs: gradually changed their morphology and sizes
